Holding throughout (format): physicochemical
Data set [1] is described as follows: Crystal form of samples after 6 months stability tests under different temperature. The settings on record: 6 months under different temperature.
A short description of data set [2]: Test 2 stability data under 5° C. for 6 months (liquid chromatography). The conditions noted are these: for Major peak: 5° C., in % (unit assumed); for storage stability: cold storage and freezing conditions. As to the method: (§1) Liquid chromatography test conditions are: chromatographic column is Merck Purospher®STAR RP-18 endcapped 250×4.6 mm, 5 μm; mobile phase A: acetonitrile, mobile phase B: 4 ml phosphoric acid added in 1 L water, the pH is adjusted to 3.5 by triethylamine; detecting wavelength: 310 nm; flow rate: 1 ml/min; sample load: 10 μl; column temperature: 30° C., liquid chromatography conditions are shown in table 4:
(§2) The inventor has tested the chemical stability of the crystal form M and crystal form N under normal temperature, cold storage and freezing conditions and compared the chemical stability with crystal form I, crystal form II and semihydrate crystal form, see tests 1-3. In the tests, crystal form I, crystal form II and semihydrate crystal form are all prepared according to the method disclosed in patent document U.S. Pat. No. 7,932,273B2.
Test 2 stability data under 5° C. for 6 months (see table 6)

Data set [3] can be described thus: Test 3 stability data under −20° C. for 6 months (liquid chromatography). The settings on record: in % (unit assumed). As to the method: as §1, §2
Test 3 stability data under −20° C. for 6 months (see table 7)

Data set [4] can be described thus: Test 1 stability data under 25° C. for 6 months (liquid chromatography). The conditions noted are these: for Major peak: 25° C., in % (unit assumed); for chemical stability compared with crystal form I, crystal form II and the semihydrate crystal form: normal temperature and cold storage conditions. As to the method: as §1, §2
Data set [5] can be described thus: Test 4 stability of crystal form N in 95% ethanol solution (XRD). The conditions noted are these: stirred for 3, 4 and 5 hours. As to the method: In the following examples and tests, the powder X-ray diffractometer and the test conditions are: X-ray diffractomer model Rigaku D/max-2200 Cu target; operation method: scan rate 4°/min, scan width 0.01°.
Test 4 the stability in formulation of crystal form N
This indicate that the crystal form N is stable in the 95% ethanol solution, therefore, it has great stability in the related formulation processes.

SMILES strings stand for the structures. Entries after “also recorded” stand apart in the source; their conditions may differ.

On to `CCCCCCOC(=O)/N=C(/N)c1ccc(NCc2nc3cc(C(=O)N(CCC(=O)OCC)c4ccccn4)ccc3n2C)cc1.CS(=O)(=O)O` [Crystal form M, 3-[(2-{[4-(hexaoxycarbonylamino-imino-methyl)-phenylamino]-methyl}-1-methyl-1H-benzimidazole-5-carbonyl)-pyridine-2-yl-amino-]-ethyl propionate-mesylate], for which the “crystal form of samples after stability tests” value in data set [1] is listed as “not changed”. In addition, the Major peak in data set [2] (0 month) came out at 99.654; in data set [2] (1 month), 99.650; in data set [2] (2 months), 99.648; in data set [2] (3 months), 99.651; in data set [2] (4 months), 99.649; in data set [2] (5 months) it was 99.649. Further, the Major peak is listed as 99.648 in data set [2] (6 months); 99.722 in data set [3] (1 month); 99.728 in data set [3] (2 months); 99.737 in data set [3] (3 months); 99.737 in data set [3] (4 months); 99.739 in data set [3] (5 months). For the same compound, the Major peak came to 99.737 in data set [3] (6 months); 99.711 in data set [4] (0 month); 99.632 in data set [4] (1 month); 99.614 in data set [4] (2 months); 99.595 in data set [4] (3 months); 99.582 in data set [4] (4 months). Further, the figures for the Major peak in data set [4] (5 months) and in data set [4] (6 months) were 99.574 and 99.541, respectively. Further, the storage stability result in data set [2] is reported as “can be stored stable for a long time”. Moreover, the “chemical stability compared with crystal form I, crystal form II and the semihydrate crystal form” value in data set [4] was “better chemical stability”.
On to `CCCCCCOC(=O)/N=C(/N)c1ccc(NCc2nc3cc(C(=O)N(CCC(=O)OCC)c4ccccn4)ccc3n2C)cc1.CS(=O)(=O)O` [Crystal form N, 3-[(2-{[4-(hexaoxycarbonylamino-imino-methyl)-phenylamino]-methyl}-1-methyl-1H-benzimidazole-5-carbonyl)-pyridine-2-yl-amino-]-ethyl propionate-mesylate], for which, in data set [5], the “stability in 95% ethanol solution (X-Ray powder diffractograms)” value is on record as “not changed within 5 hours; also recorded: very good stability”. For the same compound, in data set [1], the “crystal form of samples after stability tests” value is on record as “not changed”. Moreover, the Major peak worked out at 99.660 in data set [2] (0 month); 99.659 in data set [2] (1 month); 99.655 in data set [2] (2 months); 99.652 in data set [2] (3 months); 99.650 in data set [2] (4 months); 99.650 in data set [2] (5 months). For the same compound, the Major peak in data set [2] (6 months) is 99.649; in data set [3] (1 month), 99.723; in data set [3] (2 months), 99.726; in data set [3] (3 months) it was 99.734; in data set [3] (4 months), 99.733; in data set [3] (5 months), 99.734. The Major peak in data set [3] (6 months) is given as 99.733; in data set [4] (0 month), 99.701; in data set [4] (1 month), 99.631; in data set [4] (2 months), 99.618; in data set [4] (3 months), 99.601; in data set [4] (4 months), 99.580. Further, the Major peak was determined as 99.572 in data set [4] (5 months) and 99.536 in data set [4] (6 months). Further, the storage stability result in data set [2] is recorded as “can be stored stable for a long time”. Further, the “chemical stability compared with crystal form I, crystal form II and the semihydrate crystal form” value in data set [4] is on record as “better chemical stability”.
With `CCCCCCOC(=O)/N=C(/N)c1ccc(NCc2nc3cc(C(=O)N(CCC(=O)OCC)c4ccccn4)ccc3n2C)cc1.CS(=O)(=O)O` [Crystal form II, 3-[(2-{[4-(hexaoxycarbonylamino-imino-methyl)-phenylamino]-methyl}-1-methyl-1H-benzimidazole-5-carbonyl)-pyridine-2-yl-amino-]-ethyl propionate-mesylate], the Major peak in data set [2] (0 month) was 99.631; in data set [2] (1 month), 99.630; in data set [2] (2 months) it was 99.643; in data set [2] (3 months), 99.640; in data set [2] (4 months) it was 99.641; in data set [2] (5 months), 99.598. In addition, the Major peak in data set [2] (6 months) turned out to be 99.592; in data set [3] (1 month), 99.630; in data set [3] (2 months) it was 99.633; in data set [3] (3 months), 99.634; in data set [3] (4 months), 99.630; in data set [3] (5 months), 99.632. Further, the Major peak in data set [3] (6 months) was determined as 99.632; in data set [4] (0 month) it was 99.646; in data set [4] (1 month), 99.493; in data set [4] (2 months), 99.408; in data set [4] (3 months), 99.290; in data set [4] (4 months), 99.069. In addition, the Major peak in data set [4] (5 months) came to 99.029; in data set [4] (6 months), 98.911.
For `CCCCCCOC(=O)/N=C(/N)c1ccc(NCc2nc3cc(C(=O)N(CCC(=O)OCC)c4ccccn4)ccc3n2C)cc1.CS(=O)(=O)O` [Semihydrate crystal form, 3-[(2-{[4-(hexaoxycarbonylamino-imino-methyl)-phenylamino]-methyl}-1-methyl-1H-benzimidazole-5-carbonyl)-pyridine-2-yl-amino-]-ethyl propionate-mesylate], the Major peak in data set [2] (0 month) worked out at 99.828; in data set [2] (1 month), 99.827; in data set [2] (2 months) it was 99.830; in data set [2] (3 months), 99.826; in data set [2] (4 months), 99.831; in data set [2] (5 months), 99.827. The Major peak came to 99.832 in data set [2] (6 months); 99.834 in data set [3] (1 month); 99.833 in data set [3] (2 months); 99.836 in data set [3] (3 months); 99.839 in data set [3] (4 months); 99.840 in data set [3] (5 months). For the same compound, the Major peak is given as 99.836 in data set [3] (6 months); 99.847 in data set [4] (0 month); 99.707 in data set [4] (1 month); 99.631 in data set [4] (2 months); 99.587 in data set [4] (3 months); 99.447 in data set [4] (4 months). In addition, the Major peak in data set [4] (5 months) was 99.334; in data set [4] (6 months), 99.254.
With `CCCCCCOC(=O)/N=C(/N)c1ccc(NCc2nc3cc(C(=O)N(CCC(=O)OCC)c4ccccn4)ccc3n2C)cc1.CS(=O)(=O)O` [Crystal form I, 3-[(2-{[4-(hexaoxycarbonylamino-imino-methyl)-phenylamino]-methyl}-1-methyl-1H-benzimidazole-5-carbonyl)-pyridine-2-yl-amino-]-ethyl propionate-mesylate], the Major peak turned out to be 99.676 in data set [2] (0 month); 99.655 in data set [2] (1 month); 99.651 in data set [2] (2 months); 99.652 in data set [2] (3 months); 99.651 in data set [2] (4 months); 99.649 in data set [2] (5 months). The Major peak in data set [2] (6 months) turned out to be 99.643; in data set [3] (1 month) it was 99.693; in data set [3] (2 months), 99.694; in data set [3] (3 months), 99.690; in data set [3] (4 months) it was 99.692; in data set [3] (5 months), 99.691. Also, the Major peak in data set [3] (6 months) worked out at 99.692; in data set [4] (0 month) it was 99.690; in data set [4] (1 month), 99.604; in data set [4] (2 months), 99.574; in data set [4] (3 months), 99.468; in data set [4] (4 months), 99.308. Also, the Major peak in data set [4] (5 months) was determined as 99.309; in data set [4] (6 months), 99.220.

The record behind these values is patent publication US9718802B2, “Crystal form of dabigatran etexilate mesylate and preparation method and use thereof” (Zhejiang Hisun Pharmaceutical Co., Ltd., priority 2014, dated 2017).
